The supplement of paper PMC11451515

Tested on: NOMO1
Assay: cell viability relative to DMSO control; higher = less cytotoxic
Conditions: 48 h
Procedure, shortened: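 Before seeding, each leukemia line was adapted for at least four passages in each medium. NOMO1 or SEM cells (500 cells/well) and P12-Ichikawa cells (1000 cells/well) went into 1536-well plates at 5 μl, then received library compounds in DMSO by pin dosing across 11 threefold concentrations, 47 μM to 0.79 nM. Readout was CellTiter-Glo One luminescence after 48 h at 37°C, and viability is given as a per-plate percentage of DMSO wells, with cell-free wells as background.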

[1] = HPLM + 10% dialyzed FBS, 0.000781 µM
[2] = HPLM + 10% dialyzed FBS, 0.00234 µM
[3] = HPLM + 10% dialyzed FBS, 0.00702 µM
[4] = HPLM + 10% dialyzed FBS, 0.0211 µM
[5] = HPLM + 10% dialyzed FBS, 0.0632 µM
[6] = HPLM + 10% dialyzed FBS, 0.19 µM
[7] = HPLM + 10% dialyzed FBS, 0.569 µM
[8] = HPLM + 10% dialyzed FBS, 1.71 µM
[9] = HPLM + 10% dialyzed FBS, 5.12 µM
[10] = HPLM + 10% dialyzed FBS, 15.4 µM
[11] = HPLM + 10% dialyzed FBS, 46.1 µM
[12] = RPMI 5 mM glucose + 10% FBS, 0.000781 µM
[13] = RPMI 5 mM glucose + 10% FBS, 0.00234 µM
[14] = RPMI 5 mM glucose + 10% FBS, 0.00702 µM
[15] = RPMI 5 mM glucose + 10% FBS, 0.0211 µM
[16] = RPMI 5 mM glucose + 10% FBS, 0.0632 µM
[17] = RPMI 5 mM glucose + 10% FBS, 0.19 µM
[18] = RPMI 5 mM glucose + 10% FBS, 0.569 µM
[19] = RPMI 5 mM glucose + 10% FBS, 1.71 µM
[20] = RPMI 5 mM glucose + 10% FBS, 5.12 µM
[21] = RPMI 5 mM glucose + 10% FBS, 15.4 µM
[22] = RPMI 5 mM glucose + 10% FBS, 46.1 µM
[23] = RPMI 5 mM glucose + 10% dialyzed FBS, 0.000781 µM
[24] = RPMI 5 mM glucose + 10% dialyzed FBS, 0.00234 µM
[25] = RPMI 5 mM glucose + 10% dialyzed FBS, 0.00702 µM
[26] = RPMI 5 mM glucose + 10% dialyzed FBS, 0.0211 µM
[27] = RPMI 5 mM glucose + 10% dialyzed FBS, 0.0632 µM
[28] = RPMI 5 mM glucose + 10% dialyzed FBS, 0.19 µM
[29] = RPMI 5 mM glucose + 10% dialyzed FBS, 0.569 µM
[30] = RPMI 5 mM glucose + 10% dialyzed FBS, 1.71 µM
[31] = RPMI 5 mM glucose + 10% dialyzed FBS, 5.12 µM
[32] = RPMI 5 mM glucose + 10% dialyzed FBS, 15.4 µM
[33] = RPMI 5 mM glucose + 10% dialyzed FBS, 46.1 µM

Compound | cell viability [1] [%] | cell viability [2] [%] | cell viability [3] [%] | cell viability [4] [%] | cell viability [5] [%] | cell viability [6] [%] | cell viability [7] [%] | cell viability [8] [%] | cell viability [9] [%] | cell viability [10] [%] | cell viability [11] [%] | cell viability [12] [%] | cell viability [13] [%] | cell viability [14] [%] | cell viability [15] [%] | cell viability [16] [%] | cell viability [17] [%] | cell viability [18] [%] | cell viability [19] [%] | cell viability [20] [%] | cell viability [21] [%] | cell viability [22] [%] | cell viability [23] [%] | cell viability [24] [%] | cell viability [25] [%] | cell viability [26] [%] | cell viability [27] [%] | cell viability [28] [%] | cell viability [29] [%] | cell viability [30] [%] | cell viability [31] [%] | cell viability [32] [%] | cell viability [33] [%]
C#CCN(C)[C@H](C)Cc1ccccc1 | 88.2 | 89.6 | 88.5 | 87.2 | 76.7 | 79.7 | 85.6 | 83 | 92 | 79.8 | 65.1 | 82.2 | 82.8 | 82 | 85.4 | 77 | 83.9 | 79.4 | 76 | 82.9 | 78.9 | 77.5 | 77.6 | 86.1 | 84.2 | 95.6 | 85 | 94 | 83.5 | 80 | 92.2 | 83.6 | 82.7
Cc1cc2c(C(C)C)c(O)c(O)c(C=O)c2c(O)c1-c1c(C)cc2c(C(C)C)c(O)c(O)c(C=O)c2c1O | 122 | 123 | 135 | 137 | 115 | 107 | 116 | 105 | 105 | 100 | 50.8 | 100 | 116 | 104 | 109 | 107 | 106 | 115 | 97.1 | 98.5 | 92.8 | 12 | 115 | 115 | 114 | 121 | 114 | 102 | 103 | 106 | 110 | 94.6 | 27.5
OC[C@H]1O[C@@H](Oc2ccc(O)cc2)[C@H](O)[C@@H](O)[C@@H]1O | 88.1 | 102 | 95.4 | 105 | 95.9 | 102 | 79.7 | 101 | 86.5 | 114 | 104 | 81.4 | 93.9 | 87 | 83.1 | 86 | 87.7 | 98.5 | 91.5 | 92.5 | 90.8 | 88.9 | 65.2 | 74.8 | 85.4 | 82.1 | 82.3 | 79.6 | 89.1 | 94.5 | 86.1 | 95.5 | 93.4
O=[N+]([O-])c1cn2c(n1)OC[C@@H](OCc1ccc(OC(F)(F)F)cc1)C2 |  |  |  |  |  |  |  |  |  |  |  |  |  |  |  |  |  |  |  |  |  |  | 120 | 141 | 115 | 126 | 145 | 142 | 148 | 118 | 138 | 139 | 120
Cc1cc(O)c2c3c4c(cc(O)c13)C(C)(C)C(=O)c1c(O)cc(O)c(c1-4)C2=O | 125 | 121 | 107 | 115 | 109 | 112 | 115 | 99.2 | 114 | 101 | 7.32 | 106 | 109 | 109 | 101 | 88.6 | 101 | 90.5 | 104 | 101 | 85.2 | 26.1 | 89.5 | 95.2 | 118 | 98.9 | 109 | 86.5 | 107 | 107 | 112 | 114 | 36.5
Cc1ccc(NC(=O)c2ccc(CN3CCN(C)CC3)cc2)cc1Nc1nccc(-c2cccnc2)n1 | 95.2 | 105 | 114 | 116 | 110 | 116 | 105 | 122 | 104 | 95.4 | 109 | 90.6 | 103 | 92.3 | 112 | 120 | 99.6 | 114 | 111 | 104 | 103 | 103 | 96.2 | 100 | 111 | 101 | 105 | 103 | 110 | 94 | 115 | 104 | 117
Cc1cc(Nc2ncc(Cl)c(Nc3ccccc3[S+](=O)([O-])C(C)C)n2)c(OC(C)C)cc1C1CCNCC1 |  |  |  |  |  |  |  |  |  |  |  | 126 | 113 | 112 | 132 | 126 | 127 | 115 | 97 | 76.8 | 54.1 | 6.06 | 127 | 120 | 112 | 117 | 122 | 109 | 105 | 114 | 67 | 52 | 4.03
CCCCN(CCCC)CCC(O)c1cc2c(Cl)cc(Cl)cc2c2cc(C(F)(F)F)ccc12 (stereo not drawn) | 115 | 115 | 115 | 124 | 119 | 138 | 134 | 121 | 131 | 126 | 123 | 117 | 111 | 119 | 107 | 106 | 126 | 128 | 121 | 121 | 121 | 115 | 116 | 109 | 121 | 126 | 121 | 115 | 135 | 116 | 118 | 122 | 116
Clc1cccc(-c2nnnn2Cc2cccnc2)c1Cl | 82.8 | 92.7 | 96.4 | 99.9 | 92.4 | 93.1 | 79 | 57.2 | 49.8 | 48.6 | 33.1 | 80 | 87.1 | 89.5 | 84.1 | 91.5 | 89 | 90.5 | 62.9 | 55.8 | 57.2 | 48.5 | 81.5 | 83.6 | 91.1 | 93.6 | 83.7 | 83.2 | 83.9 | 52.5 | 59.1 | 58 | 47.8
Fc1cc(-c2cccc3ncc(-c4cnn(C5CCNCC5)c4)nc23)cc(F)c1CN1CCOCC1 | 111 | 122 | 130 | 132 | 108 | 124 | 135 | 103 | 42.6 | 21.5 | 16.1 | 109 | 107 | 119 | 102 | 111 | 116 | 114 | 105 | 84 | 29.4 | 18.3 | 128 | 115 | 124 | 122 | 125 | 103 | 119 | 103 | 95.2 | 54.9 | 25.9
COc1cc(N2CCC(C(N)=O)CC2)ccc1Nc1nc(N)c(Cl)c(Nc2ccccc2[S+](=O)([O-])C(C)C)n1 | 85.6 | 79.1 | 99.3 | 98.3 | 84.8 | 96.5 | 99.6 | 87.1 | 66 | 46.7 | 2.93 | 91.9 | 83.5 | 94 | 89.9 | 89 | 96.4 | 92 | 91.2 | 75.5 | 65.9 | 2.25 | 83.9 | 94.2 | 90.9 | 80.1 | 96.4 | 93.8 | 89.6 | 80.4 | 60.7 | 54.1 | 4.26
CCNC(=O)C[C@@H]1\N=C(C2=CC=C(Cl)C=C2)/C3=C(C=CC(=C3)OC)[N]4C(=NN=C14)C | 121 | 130 | 123 | 121 | 114 | 120 | 107 | 84.8 | 68.5 | 29 | 15 | 108 | 118 | 103 | 114 | 121 | 105 | 104 | 90.2 | 76.1 | 26.7 | 6.87 | 106 | 116 | 117 | 109 | 114 | 112 | 98 | 89.7 | 72.4 | 28.4 | 9.69
COc1cc2c(N3CCN(C(=O)Nc4ccc(OC(C)C)cc4)CC3)ncnc2cc1OCCCN1CCCCC1 | 68.3 | 89.2 | 85.9 | 88.7 | 83.3 | 87.7 | 112 | 94.2 | 95.2 | 47.4 | 41.2 | 73.1 | 71.7 | 84.7 | 74.5 | 79.4 | 83.8 | 86.3 | 77.5 | 75.4 | 40 | 67.3 | 79.3 | 80.9 | 75.4 | 85.8 | 80.9 | 74 | 89.7 | 93.7 | 85.5 | 43.5 | 55.3
Nc1nc(-c2nn(Cc3ccccc3F)c3ncccc23)nc(N)c1N1CCOCC1 | 75.2 | 103 | 115 | 102 | 119 | 122 | 122 | 122 | 130 | 112 | 92.1 | 88.5 | 93.8 | 106 | 107 | 110 | 115 | 113 | 120 | 104 | 112 | 113 | 96.3 | 107 | 107 | 110 | 123 | 106 | 111 | 116 | 108 | 121 | 110
COC1=CC=C2Nc3cc(Cl)ccc3C(N=C3C=C(CN4CCCC4)C(=O)C(CN4CCCC4)=C3)=C2N1 |  |  |  |  |  |  |  |  |  |  |  | 105 | 103 | 120 | 110 | 133 | 127 | 125 | 135 | 116 | 119 | 119 |  |  |  |  |  |  |  |  |  |  | 
Clc1ccc(C2(c3ccc(-c4cn[nH]c4)cc3)CCNCC2)cc1 | 80.5 | 101 | 111 | 100 | 100 | 98.2 | 96.6 | 91.9 | 69.9 | 63.3 | 62.7 | 80.2 | 81.3 | 86.4 | 83.8 | 90.8 | 89.2 | 98.9 | 77.9 | 77.6 | 65.6 | 55.3 | 86.7 | 99.2 | 83.4 | 93.5 | 99 | 103 | 81.4 | 72.2 | 70.3 | 59.9 | 53.7
